# From patent US20070112026A1, “Carbostyril derivatives for accelerating salivation” (priority 2003, published 2007)
# Tests used:
# anesthetized rats = test: Salivation amount in anesthetized rats after intravenous administration; assay type: in vivo; details: for Salivation amount: over 20 minutes, average ± standard error; for Salivation amount, comparison with the vehicle-treated group: vehicle = 100
# Method: The effects of the present active compound on salivation in anesthetized rats were studied as mentioned below. Models for studying salivation were prepared according to the method of Masunaga, et al. (Masunaga, H., et al., Long-lasting salivation induced by a novel Muscarinic receptor agonist SNI-201 in rats and dogs. Eur. J. Pharmacol., 339: 1-9, 1997). Namely, rats had been fasted from the day before the experiment except that the intake of water was freely allowed, and the rats were anesthetized with Nembutal (=pentobarbital sodium). The rats were put down on the back, and the neck was subjected to midline incision. An ATOM anionic fluid suction catheter of 6Fr. was inserted to the air tube in order to keep the airway clear. Next, a polyethylene tube (SP55 Natsume) containing a solution of 10 U/ml heparin in physiological saline was inserted into the […] for administration of a medicament. A 0.03 mg/ml or 0.1 mg/ml solution of the test compound (2-(4-Chlorobenzoylamino)-3-(2-quinolon-4-yl)-propionic acid; general name: Rebamipide) in 2% aqueous sodium hydrogen carbonate solution, and a vehicle (2% aqueous sodium hydrogen carbonate solution) as a control solution were used, and the test compound solution and the control solution in an amount of 1 mL/kg were respectively administered intravenously via the polyethylene tube inserted into the […]. Then, the salivation amount was measured every 10 minutes for 20 minutes with using cotton swabs, and the salivation amount per one minute was calculated from the total salivation amount for this period. In this measurement, the salivation amount was measured in such a way that the dried cotton swab (the weight thereof was previously measured) was inserted into the mouth of rat, and the swab was exchanged with a new dried one in every ten minutes, and the total salivation amount was calculated from the difference in the weight of the swab between before and after inserting into the mouth. The average salivation amount was calculated as measured in the vehicle-treated group (5 animals), the test compound (0.03 mg/kg)-treated group (5 animals) and the test compound (0.1 mg/kg)-treated group (4 animals), and the percentage of the average salivation amount in the test compound-treated groups against that of the vehicle-treated group was calculated.
# non-anesthetized rats = test: Salivation amount in non-anesthetized rats after intragastric administration (esophagus diverticulum collection); assay type: in vivo; details: saliva collected for 4 hours, average ± standard error
# Method: The effects of the present active compound by intragastric administration in non-anesthetized rats with respect to the salivation were studied as mentioned below. Using non-anesthetized rats, the saliva being swallowed for 4 hours on awaking into the diverticulum placed at the esophagus was collected and the salivation amount (g) was measured. Vehicle (0.5% sodium carboxymethyl cellulose solution) or Rebamipide 10, 30 or 100 mg/kg was intragastrically administered once when the esophagus diverticulum was set, and as a result, the average ± standard error of the salivation amount was 0.88±0.23 g (n=7) in the vehicle-treated group, 0.99±0.21 g (n=8) in the Rebamipide (10 mg/kg)-treated group, 1.37±0.26 g (n=7) in the Rebamipide (30 mg/kg)-treated group, and 1.72±0.40 g (n=8) in the Rebamipide (100 mg/kg)-treated group.
# [1] = system: patient suffering from mouth dryness accompanying Sjögren's syndrome; test: Case of a patient suffering from mouth dryness accompanying Sjögren's syndrome (Saxon test); assay type: in vivo, human; details: for Subjective symptoms: 300 mg/day started May 29, 2003; for Salivation amount (Saxon test): 300 mg/day started May 29, 2003 (0.89 g at start), one patient
# Description: Effects of the present compound 2-(4-chlorobenzoyl-amino}-3-(2-quinolon-4-yl)propionic acid on a patient suffering from mouth dryness accompanying Sjögren's syndrome:
# (1) Patient: A person.
# (2) Chief Complaint: Cotton Mouth, Mattering of Eyes.
# The symptoms of the mouth dryness were significant dry of toungue and significant lowering of salivaition (0.52 g in Saxon test). No swelling of parotid gland. Eye dryness was Silmer test (right 2 mm, left 1 mm), Rose bengal test (3+). No inflammation of the eye. Examination findings were ESR 17 mm/hr., WBC 5500/μL, RBC 484×10^4/μL, Hgb 13.4 g/dL, T.P. 8.4 g/dL, Alb 4.4 g/dL, AST 17 IU/mL, ALT 9 IU/mL, Amylase 140 IU/L, CK 46 IU/L, Cr 0.69 mg/dL, BUN 14.0 mg/dL, CRP<0.3 mg/dL, ANA 640 folds (speckled pattern), anti-SS-A antibody 126 times, Anti-SS-B antibody, negative, IgG 2270 mg/dL, IgA 368 mg/dL, IgM 132 mg/dL, and immune complex, Ciq solid-phase method, 3.3 (positive). (5) Clinical Course:
# Administration of 2-(4-chloro-benzoylamino)-3-(2-quinolon-4-yl)propionic acid (300 mg/day)was started on May 29, 2003. […] 25, 2003 and then the subjective symptoms were improved. The salivation amount more increased to 1.86 g on Jul. 23, 2003 and then the subjective symptoms were also more improved.
# [2] = system: patients with Sjögren's syndrome; test: Effects on xerostomia in patients with Sjögren's syndrome (subjective symptom scores, Saxon Test, overall evaluation); assay type: in vivo, human; details: for Salivation amount (Saxon test) / Total scores of subjective symptoms: 100 mg tablet orally three times per day, 21 patients; for Salivation amount (Saxon test): 1.29±1.00 g before administration; for Total scores of subjective symptoms: 9.6±4.1 before administration; for Overall evaluation: "Effective" / Overall evaluation: "Non-effective" / Overall evaluation: "Remarkably effective": of 21 patients
# Method: The effects of the present active compound on xerostomia in patients with Sjögren's syndrome was tested. The test was carried out for 21 patients (age: 27 to 85 years old, all female) who were diagnosed as surely having Sjögren's syndrome on the basis of Revised Diagnosis Standard for Sjögren's syndrome (issued by Ministry of Health, Labour and Welfare in Japan in 1999). Tablet containing 2-(4-chlorobenzoylamino)-3-(2-quinolon-4-yl)propionic acid (100 mg per tablet) was orally administered three times per day immediately after a meal (one tablet for each time) for 8 weeks. i) Evaluation by patients themselves as to subjective symptoms (e.g. feeling of dryness of the mouth, hydromania, pain in the mouth, taste disorder, difficulty in dietary intake, abnormality of saliva) before administration of tablet, after administration of tablet for 4 weeks and 8 weeks, respectively. […] Based on the salivation amount thus measured, the increasing rate of salivation was determined by the following equation: [formula] The effects of the test compound were evaluated based on both of the improvement of subjective symptoms and the salivation amount, which was classified in three degrees as follows. “Remarkably effective: Both of the improved rate of subjective symptoms and the increasing rate of salivation being more than 50%; “Effective”: Either of the improved rate of subjective symptoms or the increasing rate of salivation being more than 50%; “Non-effective”: Neither the improvement of subjective symptoms nor the increasing of salivation being observed. The experimental results were statistically evaluated in accordance with Wilcoxon's rank test.
# [3] = system: patient with Sjögren's syndrome; test: Patient record: earlier treatments of the same Sjögren's syndrome patient; assay type: in vivo, human; details: earlier treatment of the patient of Experiment 4
# Method: Around February 1999, the patient visited a hospital in view of dryness of mouth and difficulty in tearing. Then, they were diagnosed to have Sjögren's syndrome in view of antinuclear antibody: 160 times, anti-SSR-A antibody: 126 times, Gum test: 8 ml, lowered function of salivary gland, ophthalmic Silmer test (right 4 mm, left 3 mm), dry kerato-conjunctivitis. […] Besides, Salivate spray was also applied but it was not effective and discontinued. After moving their home because of marriage, their hospital was change on May 1, 2003. Before the changing the hospital, an ophthalmic drop containing chondroitin sulfate has frequently been used for treating dry conjunctivitis.
smiles,measurement,setting,value
"O=C(NC(Cc1cc(=O)[nH]c2ccccc12)C(=O)O)c1ccc(Cl)cc1 (centres unmarked) [Rebamipide, 2-(4-Chlorobenzoylamino)-3-(2-quinolon-4-yl)-propionic acid]",Salivation amount,"anesthetized rats; 0.03 mg/kg intravenous, n=5, listed as Test compound",0.262 ± 0.084 mg/min
same,Salivation amount,"anesthetized rats; 0.03 mg/kg intravenous, n=5, listed as test compound",0.262 ± 0.084 mg/min
same,"Salivation amount, comparison with the vehicle-treated group",anesthetized rats; 0.03 mg/kg intravenous,205%
same,Salivation amount,"anesthetized rats; 0.1 mg/kg intravenous, n=4, listed as Test compound",0.305 ± 0.097 mg/min
same,Salivation amount,"anesthetized rats; 0.1 mg/kg intravenous, n=4, listed as test compound",0.305 ± 0.097 mg/min
same,"Salivation amount, comparison with the vehicle-treated group",anesthetized rats; 0.1 mg/kg intravenous,239%
same,Salivation amount,"non-anesthetized rats; 10 mg/kg intragastric once, n=8",0.99 ± 0.21 g
same,Salivation amount,"non-anesthetized rats; 30 mg/kg intragastric once, n=7",1.37 ± 0.26 g
same,Salivation amount,"non-anesthetized rats; 100 mg/kg intragastric once, n=8",1.72 ± 0.40 g
same,Subjective symptoms,"[1]; Jul. 23, 2003",more improved
same,Salivation amount (Saxon test),"[1]; Jul. 23, 2003",1.86 g
same,Subjective symptoms,"[1]; Jun. 25, 2003",improved
same,Salivation amount (Saxon test),"[1]; Jun. 25, 2003",1.55 g
same,Effectiveness,[2]; after 4 weeks,52.4%
same,Salivation amount (Saxon test),[2]; after 4 weeks,1.95 ± 1.21 g
same,Total scores of subjective symptoms,[2]; after 4 weeks,6.6±3.2
same,"Overall evaluation: ""Effective""",[2]; after 4 weeks,9 patients
same,"Overall evaluation: ""Non-effective""",[2]; after 4 weeks,10 patients
same,"Overall evaluation: ""Remarkably effective""",[2]; after 4 weeks,2 patients
same,Effectiveness,[2]; after 8 weeks,61.9%
same,Salivation amount (Saxon test),[2]; after 8 weeks,1.93 ± 1.14 g
same,Total scores of subjective symptoms,[2]; after 8 weeks,5.2±2.6
same,"Overall evaluation: ""Effective""",[2]; after 8 weeks,7 patients
same,"Overall evaluation: ""Non-effective""",[2]; after 8 weeks,8 patients
same,"Overall evaluation: ""Remarkably effective""",[2]; after 8 weeks,6 patients
C[C@@H]1O[C@@]2(CS1)CN1CCC2CC1.Cl [Sebimerine hydrochloride],Side effects leading to stop of administration,[3],abdominal discomfort and stomach ache
